Key:
[1] = Absorption and fluorescence spectroscopy / fluorescence quantum yield; assay type: physicochemical; details: for Emission Peak / Excitation Peak / Quantum Yield: acetonitrile
Procedure: Absorption and fluorescence spectroscopy. Stock solutions of C3d-binding compounds (in DMSO) were diluted in spectroscopic grade acetonitrile (Fisher Scientific). The concentration of each sample was adjusted such that the absorption at the excitation wavelength was below 0.2, after correcting with blank acetonitrile solutions containing the same concentration of DMSO as the measured samples. The UV/visible absorption spectra (260-700 nm) were recorded on a JASCO V-670 spectrophotometer (Tokyo, Japan), using quartz cuvettes (1.0 cm path length, 3.0 ml total volume). The emission spectra were collected with a FluoroLog-3 spectrofluorometer (Horiba-Jobin-Yvon, Edison, N.J., USA). All samples were purged with argon prior to the measurements and all measurements were performed at room temperature.
Fluorescence quantum yield measurements. Fluorescence quantum yield values for the small molecules were calculated using one or more standard quantum yield fluorophores. Values were calculated according to Eq. 1.
where R and S subscripts denote reference compound and sample, respectively, Φfl is quantum yield, In is the total integrated fluorescence spectrum intensity obtained from integration of the emission spectra, An is sample absorbance at the excitation wavelength, and nn is the refractive index of the solvent. Reference compounds used for calculation included naphthalene (ΦR=0.23 for EtOH), anthracene (ΦR=0.27 for EtOH), and coumarin 1 (ΦR=0.73 for EtOH). Standard molecule quantum yield measurements were performed in acetonitrile, and solvent-dependent measurements were performed in spectroscopic grade methanol, ethanol, 1-propanol, 1-butanol, ethylene glycol, glycerol, and phosphate buffered saline.
To test the fluorescence dependence on the media viscosity, a protic media was used, i.e., an aqueous buffer and six alcohols with widely varying viscosities.

C3d [2] = target: T1, C3d (Homo sapiens, UniProt P01024); experiment: Microscale thermophoresis direct binding; details: 10 nM NT647-labeled C3d, MST buffer with 5% DMSO
T1 construct: Further cleavage events yield C3d (the terminal cleavage product of C3); purchased Complement Technology, Inc
Procedure: Microscale thermophoresis. Direct binding of molecules was assayed using a Monolith NT.115 (NanoTemper Technologies GmbH). Purified C3d (Complement Technology, Inc.) was labeled with NT647 dye using the kit from NanoTemper Technologies, and dissolved to 10 nM in MST buffer (50 mM Tris-HCl, 150 mM NaCl, 10 mM MgCl2, 0.05% Tween 20) containing 5% DMSO. A dilution series of each molecule was prepared in MST buffer containing 5% DMSO, and preincubated with 10 nM NT647-labeled C3d for 10 minutes at room temperature in the dark. Samples were loaded into hydrophilic capillary tubes, and measurements were obtained. For each molecule, reported KD values and binding curves represent results from three independent experiments.
Experimental evaluation of C3d binding. In order to validate the hits from vHTS, binding of 49 selected compounds were measured using microscale thermophoresis. All molecules were tested in a concentration-dependent manner; starting at a concentration of 200 μM (most molecules were poorly soluble in aqueous solution above this concentration). Ten molecules were identified that bound to C3d, with binding affinities (KD) ranging between 25-500 μM. The molecular structures and binding curves for top molecules are shown in FIG. 6, and other binding compounds are shown in FIG. 9.
Microscale Thermophoresis: Direct binding of a small number of selected molecules was tested using microscale thermophoresis. […] We used Efb, a protein secreted from Staphylococcus aureus that binds to C3d, as a positive control for binding (KD=3 nM) (see FIG. 11).

C3d-CR2 interaction = target: T2, C3d-CR2 interaction (Homo sapiens, UniProt P01024); experiment: Competitive binding ELISA, C3d-CR2; details: plates coated with CR2
T2 construct: Further cleavage events yield C3d (the terminal cleavage product of C3)
Procedure: (§1) Competitive binding ELISA: 50 molecules selected from virtual screening were tested for competitive binding against C3d and its interactions with endogenous protein CR2 and bacterial protein Ecb (homolog to Efb) from Staphylococcus aureus. ELISA plates were coated with CR2 or Ecb for 1 hour at 37° C. Plates were washed and blocked, then incubated with serial dilutions of C3d, with and without test molecules. Plates were incubated with a mouse monoclonal antibody against C3d, followed by a horseradish peroxidase-labeled anti-mouse IgG antibody. The amount of labeled antibody (and in turn, C3d) bound was detected via reaction with a substrate solution, followed by spectrophotometric measurement.

C3d-Ecb interaction = target: T3, C3d-Ecb interaction (Homo sapiens, UniProt P01024); experiment: Competitive binding ELISA, C3d-Ecb; set-up: species or system Staphylococcus aureus; details: plates coated with Ecb
T3 construct: Further cleavage events yield C3d (the terminal cleavage product of C3)
Procedure: as §1

C3d [3] = target: T1, C3d; experiment: Fluorescence of molecules in the presence of C3d; details: subsaturating concentrations of C3d
Procedure: The fluorescence properties of topperforming molecules in the presence of C3d were also evaluated. Often, when small molecule fluorophores bind to their targets, fluorescence may be quenched, an undesirable property for potential diagnostic molecules. […] Remarkably, Mol4 underwent drastic fluorescence enhancement in the presence of C3d, with up to 5-fold higher fluorescence at subsaturating concentrations of C3d (FIG. 14).

[4] = for EtOH; standard fluorophore; cited from earlier work
[5] = aqueous buffer and six alcohols

T2 sequence (P01024 1002-1303 limits assumed): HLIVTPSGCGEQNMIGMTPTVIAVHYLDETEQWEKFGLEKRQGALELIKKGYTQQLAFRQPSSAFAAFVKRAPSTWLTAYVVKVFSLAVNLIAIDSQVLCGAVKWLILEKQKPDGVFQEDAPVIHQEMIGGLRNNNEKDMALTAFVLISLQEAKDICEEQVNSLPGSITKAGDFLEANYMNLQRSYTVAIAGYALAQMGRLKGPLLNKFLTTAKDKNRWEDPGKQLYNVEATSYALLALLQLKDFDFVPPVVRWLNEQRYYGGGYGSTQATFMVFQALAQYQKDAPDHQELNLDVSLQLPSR
T3 sequence (P01024 1002-1303 limits assumed): as above
T1 sequence (P01024 1002-1303 limits assumed): as above

SMILES	Emission Peak [1] [nm]	Excitation Peak [1]	Quantum Yield [1]	Kd (C3d [2]) [µM]	further results
O=C(Nc1cccc(-c2cc3ccccc3[nH]2)c1)C1CCN(C(=O)C2CC23CCC3)CC1 (stereo not shown) [Mol 4]	380	315 nm	0.560	29 ± 8	
O=C(Nc1nc2ccccc2[nH]1)c1ccc(CNS(=O)(=O)c2ccc(F)c(F)c2F)cc1 [Mol 11]	405	310 nm	0.001	45 ± 13	
Cc1c(-c2ccc(F)cc2)[nH]c2ccc(CNC(=O)c3cc(=O)[nH]c(=O)[nH]3)cc12 [Mol 16]	385	310 nm	0.002	27 ± 5	
C[C@@H](Oc1ccc2[nH]c3ccccc3c(=O)c2c1)C(=O)NC(=O)NC12CC3CC(CC(C3)C1)C2 [Mol 17]	500	390/405	0.984	116 ± 41	
CC1Sc2ccc(C(=O)NNC(=O)c3cc(-c4ccco4)nc4ccccc34)cc2NC1=O (stereo not shown) [Mol 22]	455	355 nm	0.044	183 ± 81	
Cc1ccc(NC(=O)CSc2nnc3ccc(C(=O)Nc4cccc(F)c4)cn23)c(C)c1 [Mol 35]	460	275 nm	0.001	417 ± 171	inhibition of C3d-CR2 interaction (C3d-CR2 interaction): inhibit; inhibition of C3d-Ecb interaction (C3d-Ecb interaction): inhibit
O=C(Cc1cccc(F)c1)Nc1ccc(N2CCC(NCc3ccc4ncccc4c3)CC2)cc1 [Mol 36]	425	320 nm	0.017	132 ± 28	
O=C(NC1CCCc2ccccc21)c1ccc(CN2CCN(CC=Cc3ccccc3)CC2)[nH]c1=O (stereo not shown) [Mol 42]	390	335 nm	0.011	45 ± 15	
O=C(Nc1ccc(C(=O)N2CCN(Cc3nc4sc5c(c4c(=O)[nH]3)CCCC5)CC2)s1)C1CC1 [Mol 50]				77	
O=C(Nc1cccc(-c2cc3ccccc3[nH]2)c1)C1CCN(C(=O)C2CC23CCC3)CC1 (stereo not shown) [Mol B4]					fluorescence enhancement in the presence of C3d (C3d [3]): up to 5 fold
Cc1c(-c2ccc(F)cc2)[nH]c2ccc(CNC(=O)c3cc(=O)[nH]c(=O)[nH]3)cc12 [Mol B16]					dependence of Φfl on solvent polarity [1, 5]: does not exhibit any dependence on solvent polarity; emission quantum yield at high media viscosity ([1]; media viscosity about 1,000 cP, protic media): ~0.015; emission quantum yield at low media viscosity ([1]; media viscosity about <1 cP, protic media): about 0.002
C[C@@H](Oc1ccc2[nH]c3ccccc3c(=O)c2c1)C(=O)NC(=O)NC12CC3CC(CC(C3)C1)C2 [Mol B17]					Quantum Yield ([1]; listed as Mol17): close to unity
CC1Sc2ccc(C(=O)NNC(=O)c3cc(-c4ccco4)nc4ccccc34)cc2NC1=O (stereo not shown) [Mol B22]					inhibition of C3d-CR2 interaction (C3d-CR2 interaction): inhibit; inhibition of C3d-Ecb interaction (C3d-Ecb interaction): inhibit
O=C(NC1CCCc2ccccc21)c1ccc(CN2CCN(CC=Cc3ccccc3)CC2)[nH]c1=O (stereo not shown) [Mol B42]					dependence of Φfl on media viscosity [1, 5]: does not manifest viscosity dependence; dependence of Φfl on solvent polarity [1, 5]: about an order of magnitude increase in Φfl
Cc1ccc(NC(=O)Cn2nnc(C(=O)Nc3ccc(C)cc3C)c2N)c(C)c1 [Mol B47]					inhibition of C3d-CR2 interaction (C3d-CR2 interaction): only inhibits the C3d-Ecb interaction; inhibition of C3d-Ecb interaction (C3d-Ecb interaction): inhibits
c1ccc2cc3ccccc3cc2c1 [anthracene]					reference quantum yield ΦR [4]: 0.27
CCN(CC)c1ccc2c(C)cc(=O)oc2c1 [coumarin 1]					reference quantum yield ΦR [4]: 0.73
c1ccc2ccccc2c1 [naphthalene]					reference quantum yield ΦR [4]: 0.23
